According to patent US20260217767A1, “NOVEL A4B7 THIOETHER PEPTIDE DIMER ANTAGONISTS” (Protagonist Therapeutics, Inc., priority 2014, published 2026):
Where a SMILES comes first, the peptide text is derived from it.

The compounds below were run against T1, RPMI 8866 cells (Homo sapiens, UniProt P13612+P26010) (assay: α4β7-MAdCAM Cell Adhesion Assay). Details: thioether peptide dimers, Table 7; read-out: Cell-Adhesion A4B7.
T1 sequence (P13612 34-1032): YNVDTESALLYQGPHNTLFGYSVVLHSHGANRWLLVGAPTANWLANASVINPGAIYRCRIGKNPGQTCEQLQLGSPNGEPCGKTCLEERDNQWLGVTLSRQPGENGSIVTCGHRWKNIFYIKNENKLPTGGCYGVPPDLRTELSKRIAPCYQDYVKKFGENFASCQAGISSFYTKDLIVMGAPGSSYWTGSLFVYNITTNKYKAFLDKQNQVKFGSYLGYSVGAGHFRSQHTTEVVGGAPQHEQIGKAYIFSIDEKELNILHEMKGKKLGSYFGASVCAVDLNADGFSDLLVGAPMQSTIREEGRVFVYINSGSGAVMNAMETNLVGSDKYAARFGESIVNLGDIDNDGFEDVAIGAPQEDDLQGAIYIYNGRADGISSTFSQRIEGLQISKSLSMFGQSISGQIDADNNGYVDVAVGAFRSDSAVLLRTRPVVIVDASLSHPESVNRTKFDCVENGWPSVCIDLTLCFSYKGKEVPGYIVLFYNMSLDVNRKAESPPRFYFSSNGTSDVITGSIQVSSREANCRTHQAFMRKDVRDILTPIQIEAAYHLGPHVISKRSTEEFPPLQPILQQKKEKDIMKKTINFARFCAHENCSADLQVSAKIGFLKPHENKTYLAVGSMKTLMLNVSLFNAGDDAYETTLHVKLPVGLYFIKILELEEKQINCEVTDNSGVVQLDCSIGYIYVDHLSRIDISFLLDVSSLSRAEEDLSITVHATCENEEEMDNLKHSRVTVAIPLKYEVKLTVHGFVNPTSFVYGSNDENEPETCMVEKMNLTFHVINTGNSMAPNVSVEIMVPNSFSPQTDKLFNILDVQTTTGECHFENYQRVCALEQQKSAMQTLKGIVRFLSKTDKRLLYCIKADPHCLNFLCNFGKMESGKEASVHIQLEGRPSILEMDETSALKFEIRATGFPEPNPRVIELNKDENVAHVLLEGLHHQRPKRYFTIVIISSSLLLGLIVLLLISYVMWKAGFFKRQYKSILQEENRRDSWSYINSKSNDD
T1 sequence (P26010 20-798): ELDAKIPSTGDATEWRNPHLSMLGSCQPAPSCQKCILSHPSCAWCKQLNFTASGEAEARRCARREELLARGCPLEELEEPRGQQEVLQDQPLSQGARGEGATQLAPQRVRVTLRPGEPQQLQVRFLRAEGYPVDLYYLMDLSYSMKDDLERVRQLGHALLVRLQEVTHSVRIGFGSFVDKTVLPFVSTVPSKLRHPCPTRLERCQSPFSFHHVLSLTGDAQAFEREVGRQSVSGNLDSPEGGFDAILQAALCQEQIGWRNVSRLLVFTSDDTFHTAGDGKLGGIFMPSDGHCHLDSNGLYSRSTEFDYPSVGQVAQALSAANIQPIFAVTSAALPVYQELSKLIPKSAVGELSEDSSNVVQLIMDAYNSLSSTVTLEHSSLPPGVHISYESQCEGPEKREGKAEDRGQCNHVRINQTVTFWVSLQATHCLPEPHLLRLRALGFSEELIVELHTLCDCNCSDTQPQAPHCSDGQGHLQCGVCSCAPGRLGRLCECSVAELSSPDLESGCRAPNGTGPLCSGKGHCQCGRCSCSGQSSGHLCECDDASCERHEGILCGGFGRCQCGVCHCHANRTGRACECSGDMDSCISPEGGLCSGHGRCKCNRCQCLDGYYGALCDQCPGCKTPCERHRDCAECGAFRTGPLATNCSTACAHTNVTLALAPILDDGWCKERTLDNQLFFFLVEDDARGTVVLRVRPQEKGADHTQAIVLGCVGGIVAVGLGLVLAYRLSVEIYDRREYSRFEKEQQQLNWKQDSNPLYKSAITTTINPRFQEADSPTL
Format: cell-based
Method: α4β7-MAdCAM Cell Adhesion Assay
RPMI 8866 cells (Sigma #95041316) were cultured in RPMI 1640 HEPES medium (Invitrogen #22400-089) supplemented with 10% serum (Fetal Bovine Serum, Invitrogen #16140-071), 1 mM sodium pyruvate (Invitrogen #11360-070), 2 mM L-glutamine (Invitrogen #25030-081) and Penicillin-Streptomycin (Invitrogen #15140-122) at 100 units of penicillin and 100 μg of streptomycin per ml. The cells were washed two times in DMEM medium (ATCC #30-2002) supplemented with 0.1% BSA, 10 mM HEPES pH 7 and 1 mM MnCl2. The cells were re-suspended in supplemented DMEM medium at a density of 4×10^6 cells/ml.
A Nunc MaxiSorp plate was coated with rh MAdCAM-1/Fc Chimera (R&D #6065-MC) at 200 ng per well in 50 ul per well in 1×PBS and incubated at 4° C. overnight. The solution was then removed by shaking, blocked with 250 ul per well PBS containing 1% BSA, and incubated at 37° C. for 1 hr. The solution was removed by shaking. Peptides were diluted by serial dilution in a final volume of 50 ul per well (2× concentration). To each well, 50 ul of cells (200,000 cells) were added and the plate was incubated at 37° C., 5% CO2 for 30-45 min to allow cell adhesion. The wells were washed manually three times (100 ul per wash) with supplemented DMEM. After the final wash, 100 μl/well of supplemented DMEM and 10 ul/well of MTT reagent (ATTC cat #30-1010K) were added. The plate was incubated at 37° C., 5% CO2 for 2-3 hrs until a purple precipitate is visible. 100 ul of Detergent Reagent (ATTC cat #30-1010K) was added to each well. The plate was covered from the light, wrapped in Parafilm to prevent evaporation, and left overnight at room temperature in the dark. The plate was shaken for 5 min and the absorbance at 570 nm is measured. To calculate the dose response, the absorbance value of control wells not containing cells was subtracted from each test well.

Compound	IC50
CC(C)C[C@@H]1NC(=O)[C@H]([C@@H](C)O)NC(=O)[C@H](CC(=O)O)NC(=O)[C@H](CO)NC(=O)[C@H](CCCNC(=N)N)N(C)C(=O)c2ccccc2CSC(C)(C)[C@@H](C(=O)N[C@@H](Cc2c[nH]c3ccccc23)C(=O)N[C@H](CCC(=O)O)C(=O)N[C@@H](Cc2ccc(O)cc2)C(=O)N[C@H](CCCCN)C(N)=O)NC1=O [compound 195] (HELM PEPTIDE1{[meR].S.D.T.L.[Pen].W.[dE].Y.[dK].[am]}|CHEM1{[O=C(c1ccccc1C[*:2])[*:1]]}$PEPTIDE1,CHEM1,1:R1-1:R1|PEPTIDE1,CHEM1,6:R3-1:R2$$$V2.0)	< 0.025 µM
CC(C)C[C@@H]1NC(=O)[C@H]([C@@H](C)O)NC(=O)[C@H](CC(=O)O)NC(=O)[C@H](CO)NC(=O)[C@H](CCCNC(=N)N)N(C)C(=O)c2ccccc2CSC[C@@H](C(=O)N[C@H](Cc2ccccc2)C(=O)N[C@H](CCC(=O)O)C(=O)N[C@H](CCCCN)C(N)=O)NC1=O [compound 187] (HELM PEPTIDE1{[meR].S.D.T.L.C.[dF].[dE].[dK].[am]}|CHEM1{[O=C(c1ccccc1C[*:2])[*:1]]}$PEPTIDE1,CHEM1,1:R1-1:R1|PEPTIDE1,CHEM1,6:R3-1:R2$$$V2.0)	0.025 to 0.1 µM
CC(C)C[C@@H]1NC(=O)[C@H]([C@@H](C)O)NC(=O)[C@H](CC(=O)O)NC(=O)[C@H](CO)NC(=O)[C@H](CCCNC(=N)N)N(C)C(=O)c2ccccc2CSC[C@@H](C(=O)N2Cc3ccccc3C[C@H]2C(=O)N[C@@H](Cc2ccc(-c3ccccc3)cc2)C(=O)N[C@H](CCCCN)C(N)=O)NC1=O [compound 205] (HELM PEPTIDE1{[meR].S.D.T.L.C.[Tic].[O=C([C@H](Cc1ccc(-c2ccccc2)cc1)N[*:1])[*:2]].[dK].[am]}|CHEM1{[O=C(c1ccccc1C[*:2])[*:1]]}$PEPTIDE1,CHEM1,1:R1-1:R1|PEPTIDE1,CHEM1,6:R3-1:R2$$$V2.0)	0.1 to 1 µM
CC(C)C[C@@H]1NC(=O)[C@H]([C@@H](C)O)NC(=O)[C@H](CC(=O)O)NC(=O)[C@H](CO)NC(=O)[C@H](CCCNC(=N)N)N(C)C(=O)CSC(C)(C)[C@@H](C(=O)N[C@@H](Cc2c[nH]c3ccccc23)C(=O)N[C@H](CCCCN)C(N)=O)NC1=O [compound 147]	> 1 µM
CC(C)C[C@@H]1NC(=O)[C@H]([C@@H](C)O)NC(=O)[C@H](CC(=O)O)NC(=O)[C@H](CO)NC(=O)[C@H](CCCNC(=N)N)N(C)C(=O)c2ccccc2CSC(C)(C)[C@@H](C(=O)N[C@@H](Cc2c[nH]c3ccccc23)C(=O)N[C@H](CCC(=O)O)C(=O)N[C@H](Cc2ccc(O)cc2)C(=O)N[C@H](CCCCN)C(N)=O)NC1=O [compound 201] (HELM PEPTIDE1{[meR].S.D.T.L.[Pen].W.[dE].[dY].[dK].[am]}|CHEM1{[O=C(c1ccccc1C[*:2])[*:1]]}$PEPTIDE1,CHEM1,1:R1-1:R1|PEPTIDE1,CHEM1,6:R3-1:R2$$$V2.0)	< 0.025 µM
CC(C)C[C@@H]1NC(=O)[C@H]([C@@H](C)O)NC(=O)[C@H](CC(=O)O)NC(=O)[C@H](CO)NC(=O)[C@H](CCCNC(=N)N)N(C)C(=O)c2ccccc2CSC(C)(C)[C@@H](C(=O)N[C@@H](Cc2ccccc2)C(=O)N[C@@H](Cc2ccc(-c3ccccc3)cc2)C(=O)N[C@H](CCCCN)C(N)=O)NC1=O [compound 203] (HELM PEPTIDE1{[meR].S.D.T.L.[Pen].F.[O=C([C@H](Cc1ccc(-c2ccccc2)cc1)N[*:1])[*:2]].[dK].[am]}|CHEM1{[O=C(c1ccccc1C[*:2])[*:1]]}$PEPTIDE1,CHEM1,1:R1-1:R1|PEPTIDE1,CHEM1,6:R3-1:R2$$$V2.0)	0.1 to 1 µM
CC(C)C[C@@H]1NC(=O)[C@H]([C@@H](C)O)NC(=O)[C@H](CC(=O)O)NC(=O)[C@H](CO)NC(=O)[C@H](CCCNC(=N)N)N(C)C(=O)c2ccccc2CSC(C)(C)[C@@H](C(=O)N[C@@H](Cc2c[nH]c3ccccc23)C(=O)N[C@H](CCC(=O)O)C(=O)N[C@@H](CC(C)C)C(=O)N[C@H](CCCCN)C(N)=O)NC1=O [compound 190] (HELM PEPTIDE1{[meR].S.D.T.L.[Pen].W.[dE].L.[dK].[am]}|CHEM1{[O=C(c1ccccc1C[*:2])[*:1]]}$PEPTIDE1,CHEM1,1:R1-1:R1|PEPTIDE1,CHEM1,6:R3-1:R2$$$V2.0)	< 0.025 µM
CC(C)C[C@@H]1NC(=O)[C@H]([C@@H](C)O)NC(=O)[C@H](CC(=O)O)NC(=O)[C@H](CO)NC(=O)[C@H](CCCNC(=N)N)N(C)C(=O)c2ccccc2CSC(C)(C)[C@@H](C(=O)N[C@@H](Cc2c[nH]c3ccccc23)C(=O)N[C@@H](Cc2ccc(-c3ccccc3)cc2)C(=O)N[C@H](CCCCN)C(N)=O)NC1=O [compound 202] (HELM PEPTIDE1{[meR].S.D.T.L.[Pen].W.[O=C([C@H](Cc1ccc(-c2ccccc2)cc1)N[*:1])[*:2]].[dK].[am]}|CHEM1{[O=C(c1ccccc1C[*:2])[*:1]]}$PEPTIDE1,CHEM1,1:R1-1:R1|PEPTIDE1,CHEM1,6:R3-1:R2$$$V2.0)	0.1 to 1 µM
COC(=O)CC[C@H](NC(=O)[C@H](Cc1c[nH]c2ccccc12)NC(=O)[C@H]1NC(=O)[C@H](CC(C)C)NC(=O)[C@H]([C@@H](C)O)NC(=O)[C@H](CC(=O)O)NC(=O)[C@H](CO)NC(=O)[C@H](CCCNC(=N)N)N(C)C(=O)c2ccccc2CSC1(C)C)C(=O)N[C@H](CCCCN)C(N)=O [compound 210] (HELM PEPTIDE1{[meR].S.D.T.L.[Pen].W.E.[dK].[am]}|CHEM1{[CO[*:1]]}|CHEM2{[O=C(c1ccccc1C[*:2])[*:1]]}$PEPTIDE1,CHEM1,8:R3-1:R1|PEPTIDE1,CHEM2,1:R1-1:R1|PEPTIDE1,CHEM2,6:R3-1:R2$$$V2.0)	0.1 to 1 µM
CC(C)C[C@@H]1NC(=O)[C@H]([C@@H](C)O)NC(=O)[C@H](CC(=O)O)NC(=O)[C@H](CO)NC(=O)[C@H](CCCNC(=N)N)N(C)C(=O)c2ccccc2CSC(C)(C)[C@@H](C(=O)N[C@@H](Cc2c[nH]c3ccccc23)C(=O)N[C@H](CCC(=O)O)C(=O)N[C@H](CCCCN)C(N)=O)NC1=O [compound 212] (HELM PEPTIDE1{[meR].S.D.T.L.[Pen].W.[dE].[dK].[am]}|CHEM1{[O=C(c1ccccc1C[*:2])[*:1]]}$PEPTIDE1,CHEM1,1:R1-1:R1|PEPTIDE1,CHEM1,6:R3-1:R2$$$V2.0)	0.025 to 0.1 µM
